# According to ChEMBL document CHEMBL1201862, “PubChem BioAssay data set” (2004):
# The source made the active and inactive calls.
# Tests used:
# Prothrombin = Prothrombin (Homo sapiens, UniProt P00734); experiment: Thrombin 1536 HTS Dose Response Confirmation. [Related pubchem assays: 1046 (Thrombin 1536 HTS; hits were confirmed in this assay)]; format: functional
# [1] = A549 cell cytotoxicity, dose response, cytotoxicity control, plate reader, cherry-pick, antagonist series (AID 743412); format: functional, cell-based
# [2] = toxicity toward HepG2 liver cells – cell-based, plate reader, cherry-pick, antagonist series, cytotoxicity control, dose response (AID 743416); format: functional
# [3] = blockers of bursicon-stimulated LGR2 cAMP reporter – cell-based, HEK293, CRE-luciferase reporter, cherry pick, set 2, dose response (AID 743343); format: functional;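 also: transfected cells were stimulated with diluted bursicon conditioned medium after compound addition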
# [4] = blockade of melanocortin 4 receptor signaling – cell-based, plate reader, cherry pick, counter-screen for LGR2 antagonist project, dose response (AID 743444); format: functional;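 also: transfected HEK 293 cells stimulated with alpha-MSH peptide; potency of inhibitors of the alpha-MSH evoked signal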
# Estrogen receptor = biological target: T1, Estrogen receptor (Homo sapiens, UniProt P03372);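 also: potency for inhibiting coactivator peptide recruitment to the receptor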
# T1 sequence (P03372 whole entry): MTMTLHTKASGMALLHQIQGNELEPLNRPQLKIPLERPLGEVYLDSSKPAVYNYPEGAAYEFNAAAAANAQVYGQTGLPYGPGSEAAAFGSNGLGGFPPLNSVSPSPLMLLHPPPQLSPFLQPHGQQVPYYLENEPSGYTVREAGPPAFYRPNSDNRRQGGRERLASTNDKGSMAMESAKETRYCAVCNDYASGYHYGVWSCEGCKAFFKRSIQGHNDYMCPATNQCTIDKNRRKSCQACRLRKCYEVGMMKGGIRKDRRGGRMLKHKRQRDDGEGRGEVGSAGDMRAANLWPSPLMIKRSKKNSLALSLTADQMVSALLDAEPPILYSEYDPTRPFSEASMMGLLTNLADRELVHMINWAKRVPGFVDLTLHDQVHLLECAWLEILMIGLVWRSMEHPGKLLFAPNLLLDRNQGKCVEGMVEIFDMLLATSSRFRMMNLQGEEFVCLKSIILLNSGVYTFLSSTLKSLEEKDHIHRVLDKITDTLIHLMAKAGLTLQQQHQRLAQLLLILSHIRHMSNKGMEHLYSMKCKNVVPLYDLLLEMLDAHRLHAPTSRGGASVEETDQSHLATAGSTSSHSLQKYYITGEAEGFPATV
# [5] = viability of PTEN-deleted HCT116 cells – cell-based, HCT116 PTEN knockout, dose response (AID 1047); format: functional;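 also: HCT116 colon tumor cells with PTEN knocked out; cells exposed to compound for 60 hours before readout; potency for loss of cell viability measured by luminescence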
# [6] = viability of HCT116 lacking mutant beta-catenin – cell-based, human colon tumor, dose response (AID 1045); format: functional;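 also: HCT116 colon tumor cells with beta catenin knocked out; cells exposed to compound for 60 hours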
# [7] = biological target: T2, DNA repair protein RAD52 homolog (Homo sapiens, UniProt P43351); format: functional, biochemical
# T2 sequence (P43351 whole entry): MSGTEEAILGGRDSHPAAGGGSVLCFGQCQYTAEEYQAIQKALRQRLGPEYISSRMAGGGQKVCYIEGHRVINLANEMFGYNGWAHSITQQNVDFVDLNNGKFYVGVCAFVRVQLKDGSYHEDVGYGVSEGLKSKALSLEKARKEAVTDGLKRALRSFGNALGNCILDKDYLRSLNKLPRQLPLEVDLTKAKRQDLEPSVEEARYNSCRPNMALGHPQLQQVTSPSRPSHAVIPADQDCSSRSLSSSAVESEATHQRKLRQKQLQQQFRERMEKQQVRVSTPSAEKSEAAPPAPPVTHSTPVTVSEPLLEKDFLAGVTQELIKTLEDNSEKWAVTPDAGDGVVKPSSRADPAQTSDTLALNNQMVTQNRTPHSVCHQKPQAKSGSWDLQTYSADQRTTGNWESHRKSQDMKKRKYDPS
# Fatty acid synthase [8] = biological target: T3, Fatty acid synthase (Homo sapiens, UniProt P49327); experiment: inhibition of human FAS-TE enzyme activity – biochemical, endpoint fluorescence intensity, uHTS hits, dose response (AID 624327); format: functional;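 also: fluorescence from hydrolysis of an O-methyl fluorescein acyl ester substrate by the enzyme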
# Fatty acid synthase [9] = biological target: T3, Fatty acid synthase; experiment: inhibition of human FAS-TE enzyme activity – biochemical, kinetic fluorescence intensity, dose response (AID 624326); format: functional;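 also: rate of fluorescence rise from hydrolysis of a fluorogenic O-methyl fluorescein ester substrate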
# [10] = Trypanosoma cruzi growth suppression in host cells – NIH3T3 host cells, beta-gal luminescence, confirmation (AID 2044); format: functional, cell-based;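 also: intracellular parasites grown in NIH/3T3 mouse fibroblasts as host cells; luminescent beta-galactosidase reporter signal from transgenic T. cruzi replicating inside host cells; inhibitors lower the luminescence signal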
# [11] = NIH3T3 cell viability loss – ATP luminescence, mouse fibroblasts, counter-screen, dose response (AID 2010); format: functional, cell-based;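 also: cells exposed to compound for about 90 hours before reading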
# [12] = biological target: T4, Corticotropin-releasing factor receptor 2/Corticotropin-releasing factor-binding protein (Homo sapiens, UniProt P24387+Q13324); experiment: activators of CRF receptor 2 with binding protein – uHTS hits, confirmation (AID 602473); format: functional; details: read-out: EC50_Mean
# T4 sequence (Q13324 whole entry): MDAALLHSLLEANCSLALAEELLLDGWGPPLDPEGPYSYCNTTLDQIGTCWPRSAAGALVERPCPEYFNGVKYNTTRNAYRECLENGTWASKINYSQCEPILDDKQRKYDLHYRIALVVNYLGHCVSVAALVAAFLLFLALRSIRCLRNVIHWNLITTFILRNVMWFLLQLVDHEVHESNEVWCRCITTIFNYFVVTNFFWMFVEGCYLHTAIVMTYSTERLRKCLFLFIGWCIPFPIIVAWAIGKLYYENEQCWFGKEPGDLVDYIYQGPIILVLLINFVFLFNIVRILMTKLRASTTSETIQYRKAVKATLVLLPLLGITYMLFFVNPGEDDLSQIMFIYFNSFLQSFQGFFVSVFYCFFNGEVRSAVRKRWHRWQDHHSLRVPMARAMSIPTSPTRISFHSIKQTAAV
# T4 sequence (P24387 whole entry): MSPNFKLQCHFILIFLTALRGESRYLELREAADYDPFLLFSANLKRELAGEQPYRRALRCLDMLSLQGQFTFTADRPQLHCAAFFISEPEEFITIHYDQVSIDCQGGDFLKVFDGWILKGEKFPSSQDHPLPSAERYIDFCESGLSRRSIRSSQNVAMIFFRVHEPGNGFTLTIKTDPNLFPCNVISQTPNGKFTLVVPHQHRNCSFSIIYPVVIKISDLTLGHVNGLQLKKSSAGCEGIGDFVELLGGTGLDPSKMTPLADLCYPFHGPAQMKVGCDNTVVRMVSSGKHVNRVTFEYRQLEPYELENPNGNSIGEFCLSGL
# [13] = biological target: T5, Heat shock factor protein 1 (Mus musculus, UniProt P38532); experiment: enhancement of HSF1-driven luciferase signal – cell-based, NIH3T3, luminescence, dose retest, confirmation (AID 435004); format: functional;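 also: stress induced by proteasome inhibitor MG132 added 30 min after compound; luciferase reporter driven by HSF1 response element in NIH3T3 cells; actives raise luminescence as potentiators of the MG132 stress response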
# T5 sequence (P38532 whole entry): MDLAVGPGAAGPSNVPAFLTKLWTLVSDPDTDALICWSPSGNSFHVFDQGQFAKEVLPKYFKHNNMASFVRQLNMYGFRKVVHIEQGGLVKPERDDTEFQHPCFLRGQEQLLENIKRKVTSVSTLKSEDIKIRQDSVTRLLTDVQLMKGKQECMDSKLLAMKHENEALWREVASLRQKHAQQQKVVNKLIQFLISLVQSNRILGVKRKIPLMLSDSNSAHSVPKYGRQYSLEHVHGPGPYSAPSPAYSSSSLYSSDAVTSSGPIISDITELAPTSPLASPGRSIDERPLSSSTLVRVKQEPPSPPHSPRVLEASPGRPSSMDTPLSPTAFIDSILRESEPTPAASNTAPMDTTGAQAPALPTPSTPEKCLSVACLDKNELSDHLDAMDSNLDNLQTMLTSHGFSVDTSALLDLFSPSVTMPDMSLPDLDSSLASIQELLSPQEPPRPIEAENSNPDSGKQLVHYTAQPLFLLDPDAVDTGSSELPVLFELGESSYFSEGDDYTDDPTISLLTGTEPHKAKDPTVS
# [14] = tested on: Streptococcus sp. 'group A'; experiment: Streptococcus pyogenes SK(-)GAS viability under kanamycin – luminescence, BacTiterGlo, confirmation, counter-screen for streptokinase expression inhibitor project, dose response (AID 1900); format: functional, organism-based
# Streptokinase A = biological target: T6, Streptokinase A (Streptococcus pyogenes serotype M1, UniProt P10520); experiment: viability-normalized secreted streptokinase activity reduction – plasminogen activation absorbance, OD405, dose response (AID 1914); format: functional, Streptococcus pyogenes M1 GAS;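 also: secreted streptokinase activity via plasminogen activation per viability signal from cell pellet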
# T6 sequence (P10520 whole entry): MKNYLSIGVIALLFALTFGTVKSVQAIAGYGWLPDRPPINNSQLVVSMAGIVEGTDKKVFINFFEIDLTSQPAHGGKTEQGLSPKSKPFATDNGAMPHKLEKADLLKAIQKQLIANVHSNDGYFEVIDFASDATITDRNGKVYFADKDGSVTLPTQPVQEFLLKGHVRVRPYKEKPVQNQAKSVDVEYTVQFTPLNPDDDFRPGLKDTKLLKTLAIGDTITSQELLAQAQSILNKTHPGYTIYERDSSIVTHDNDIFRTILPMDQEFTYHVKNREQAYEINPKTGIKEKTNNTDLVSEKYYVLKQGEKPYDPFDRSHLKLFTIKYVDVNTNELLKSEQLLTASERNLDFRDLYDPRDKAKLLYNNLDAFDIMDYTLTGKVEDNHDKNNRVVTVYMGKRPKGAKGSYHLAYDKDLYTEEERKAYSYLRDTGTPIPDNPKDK
# Streptococcus = experiment: GAS UMAA2166 growth inhibition – luminescence, BacTiterGlo, counter-screen for streptokinase expression inhibitor project, dose response (AID 1915); format: functional, organism-based;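 also: potency for reduction of bacterial viability or growth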
# [15] = biological target: T7, Histone-lysine N-methyltransferase NSD2 (Homo sapiens, UniProt O96028); format: biochemical
# T7 sequence (O96028 whole entry): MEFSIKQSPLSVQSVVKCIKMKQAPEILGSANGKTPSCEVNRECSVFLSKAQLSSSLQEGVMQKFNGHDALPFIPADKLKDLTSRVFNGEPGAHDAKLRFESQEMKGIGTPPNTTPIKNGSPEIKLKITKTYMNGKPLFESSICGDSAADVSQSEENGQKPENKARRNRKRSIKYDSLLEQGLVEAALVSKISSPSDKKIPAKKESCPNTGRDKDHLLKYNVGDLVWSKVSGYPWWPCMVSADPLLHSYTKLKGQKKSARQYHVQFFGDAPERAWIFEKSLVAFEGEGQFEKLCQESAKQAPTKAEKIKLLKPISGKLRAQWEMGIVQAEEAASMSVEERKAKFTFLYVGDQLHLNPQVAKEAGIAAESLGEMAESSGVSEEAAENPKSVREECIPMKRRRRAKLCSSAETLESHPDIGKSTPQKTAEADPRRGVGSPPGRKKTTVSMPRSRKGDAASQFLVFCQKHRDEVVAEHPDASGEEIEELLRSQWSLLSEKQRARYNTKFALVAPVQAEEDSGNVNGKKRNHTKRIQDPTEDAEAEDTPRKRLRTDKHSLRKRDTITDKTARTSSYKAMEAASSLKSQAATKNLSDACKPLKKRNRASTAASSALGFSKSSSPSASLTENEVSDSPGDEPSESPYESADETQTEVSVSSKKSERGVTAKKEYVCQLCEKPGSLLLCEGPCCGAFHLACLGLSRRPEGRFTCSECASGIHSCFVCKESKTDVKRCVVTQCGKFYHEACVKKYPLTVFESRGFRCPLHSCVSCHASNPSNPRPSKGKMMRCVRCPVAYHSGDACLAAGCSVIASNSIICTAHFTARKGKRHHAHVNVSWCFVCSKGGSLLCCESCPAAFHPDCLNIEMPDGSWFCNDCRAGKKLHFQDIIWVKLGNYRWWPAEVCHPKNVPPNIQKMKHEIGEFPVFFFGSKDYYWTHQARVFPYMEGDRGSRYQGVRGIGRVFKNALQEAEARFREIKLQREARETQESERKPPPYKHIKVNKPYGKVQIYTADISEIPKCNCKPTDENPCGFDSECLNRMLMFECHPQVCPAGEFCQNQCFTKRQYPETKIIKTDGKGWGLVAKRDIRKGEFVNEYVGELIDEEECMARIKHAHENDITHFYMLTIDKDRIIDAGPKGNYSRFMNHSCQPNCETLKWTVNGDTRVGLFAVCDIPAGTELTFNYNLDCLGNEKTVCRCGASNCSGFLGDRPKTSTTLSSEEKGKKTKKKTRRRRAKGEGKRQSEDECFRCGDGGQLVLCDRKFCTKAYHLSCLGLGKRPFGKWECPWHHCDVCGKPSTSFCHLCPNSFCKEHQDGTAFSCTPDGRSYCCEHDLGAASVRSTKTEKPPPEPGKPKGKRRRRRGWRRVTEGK
# [16] = HIV-1 AD8 envelope cell-cell fusion blockers – cherry-pick, dose response (AID 652062); format: functional, cell-based;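 also: luciferase signal from cell-cell fusion driven by HIV-1 clade B AD8 Env; potency is for inhibitors of fusion seen as a drop in luminescence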
# T3 sequence (P49327 whole entry): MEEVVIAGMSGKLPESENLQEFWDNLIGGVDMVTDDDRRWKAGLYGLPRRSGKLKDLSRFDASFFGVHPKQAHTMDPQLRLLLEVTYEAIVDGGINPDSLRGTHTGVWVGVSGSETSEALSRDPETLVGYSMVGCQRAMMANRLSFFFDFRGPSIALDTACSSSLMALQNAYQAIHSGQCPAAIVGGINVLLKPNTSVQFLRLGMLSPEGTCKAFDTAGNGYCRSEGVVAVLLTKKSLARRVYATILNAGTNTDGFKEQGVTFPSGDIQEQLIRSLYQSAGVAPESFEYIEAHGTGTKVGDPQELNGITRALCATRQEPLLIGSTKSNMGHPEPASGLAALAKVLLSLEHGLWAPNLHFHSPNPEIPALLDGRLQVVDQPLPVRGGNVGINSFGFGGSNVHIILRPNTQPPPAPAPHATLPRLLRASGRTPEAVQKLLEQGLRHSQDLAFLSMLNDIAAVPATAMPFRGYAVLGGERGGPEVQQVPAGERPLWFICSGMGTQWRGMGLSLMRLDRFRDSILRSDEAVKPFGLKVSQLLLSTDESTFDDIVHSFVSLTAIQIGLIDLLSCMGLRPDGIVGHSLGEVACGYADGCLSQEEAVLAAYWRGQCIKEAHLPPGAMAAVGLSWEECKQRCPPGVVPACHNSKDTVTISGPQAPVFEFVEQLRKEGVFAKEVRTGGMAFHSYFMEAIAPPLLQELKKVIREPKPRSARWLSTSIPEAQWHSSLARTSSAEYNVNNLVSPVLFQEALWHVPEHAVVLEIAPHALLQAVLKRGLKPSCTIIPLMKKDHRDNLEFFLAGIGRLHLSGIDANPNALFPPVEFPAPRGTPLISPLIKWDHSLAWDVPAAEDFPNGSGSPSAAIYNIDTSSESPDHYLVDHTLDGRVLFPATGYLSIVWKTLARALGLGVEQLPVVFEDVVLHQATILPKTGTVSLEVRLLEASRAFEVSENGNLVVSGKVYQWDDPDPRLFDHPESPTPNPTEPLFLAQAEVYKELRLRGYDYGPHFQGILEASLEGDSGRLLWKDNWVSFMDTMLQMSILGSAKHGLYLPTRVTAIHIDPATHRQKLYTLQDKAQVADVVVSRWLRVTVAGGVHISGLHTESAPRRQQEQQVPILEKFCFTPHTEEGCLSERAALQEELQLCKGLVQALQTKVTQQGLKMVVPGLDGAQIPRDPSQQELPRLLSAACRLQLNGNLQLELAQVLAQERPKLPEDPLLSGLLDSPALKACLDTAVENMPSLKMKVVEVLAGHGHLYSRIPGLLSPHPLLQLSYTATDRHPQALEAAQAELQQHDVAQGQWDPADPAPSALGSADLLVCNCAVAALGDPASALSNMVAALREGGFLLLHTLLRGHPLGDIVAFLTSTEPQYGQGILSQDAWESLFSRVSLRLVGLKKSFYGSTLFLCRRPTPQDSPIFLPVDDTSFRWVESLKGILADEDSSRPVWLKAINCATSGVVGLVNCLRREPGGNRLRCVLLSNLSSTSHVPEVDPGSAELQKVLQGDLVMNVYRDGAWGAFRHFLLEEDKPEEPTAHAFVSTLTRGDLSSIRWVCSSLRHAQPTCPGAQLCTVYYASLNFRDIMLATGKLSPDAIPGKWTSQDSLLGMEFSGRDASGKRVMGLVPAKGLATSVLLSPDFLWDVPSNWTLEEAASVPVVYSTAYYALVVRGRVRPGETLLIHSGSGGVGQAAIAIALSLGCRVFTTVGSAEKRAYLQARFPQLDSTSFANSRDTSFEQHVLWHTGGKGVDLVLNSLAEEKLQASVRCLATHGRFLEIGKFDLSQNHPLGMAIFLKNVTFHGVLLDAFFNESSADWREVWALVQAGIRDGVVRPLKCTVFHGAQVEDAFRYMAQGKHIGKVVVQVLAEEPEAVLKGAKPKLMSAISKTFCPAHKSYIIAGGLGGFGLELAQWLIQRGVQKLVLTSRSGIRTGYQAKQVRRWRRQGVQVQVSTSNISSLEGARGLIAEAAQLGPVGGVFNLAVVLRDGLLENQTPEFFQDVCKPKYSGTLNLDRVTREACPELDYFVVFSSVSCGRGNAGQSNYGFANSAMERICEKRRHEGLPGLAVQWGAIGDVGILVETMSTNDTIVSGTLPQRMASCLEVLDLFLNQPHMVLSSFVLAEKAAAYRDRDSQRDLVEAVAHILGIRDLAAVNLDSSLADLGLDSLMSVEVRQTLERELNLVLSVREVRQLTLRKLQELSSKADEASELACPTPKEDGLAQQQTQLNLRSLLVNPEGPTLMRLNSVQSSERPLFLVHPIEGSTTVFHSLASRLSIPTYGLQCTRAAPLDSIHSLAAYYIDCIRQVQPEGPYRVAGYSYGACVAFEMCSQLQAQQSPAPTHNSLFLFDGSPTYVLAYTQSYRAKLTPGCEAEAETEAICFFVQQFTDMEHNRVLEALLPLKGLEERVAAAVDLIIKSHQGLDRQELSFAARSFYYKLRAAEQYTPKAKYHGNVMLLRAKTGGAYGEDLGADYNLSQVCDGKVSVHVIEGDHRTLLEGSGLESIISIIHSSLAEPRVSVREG
smiles,measurement,setting,value
O=C(O)c1ccc(/C=N/NC(=O)c2ccc(F)cc2)cc1,IC50,Prothrombin,> 50 µM (not active)
COc1ccc(S(=O)(=O)N(C)C[C@@H]2OCc3cnnn3CCCC(=O)N([C@@H](C)CO)C[C@H]2C)cc1,AC50,[1],> 52 µM (inactive)
same,AC50,[2],> 52 µM (inactive)
same,AC50,[3],2.36 µM (active)
same,AC50,[4],1.75 µM (active)
Cc1ccc2nc(O)c(-c3nc4ccccn4c3NCc3ccco3)cc2c1,IC50,Estrogen receptor,25.7 µM (active)
same,EC50,[5],18.7 µM (active)
same,EC50,[6],28.4 µM (active)
COc1cc(/C=C2\SC(=O)N(CCN)C2=O)ccc1OS(=O)(=O)c1cc(C)ccc1C,AC50,[7],5.08 µM (active)
CCOc1ccc(C2CC(=O)N(Nc3ccc([N+](=O)[O-])cc3[N+](=O)[O-])C2=O)cc1 (centres undefined),IC50,Prothrombin,> 50 µM (not active)
same,IC50,Fatty acid synthase [8],1.84 µM (active)
same,IC50,Fatty acid synthase [9],1.44 µM (active)
COCCNC(=O)Cn1nc(C(F)(F)F)cc1C,IC50,Prothrombin,> 50 µM (not active)
Cc1cc(C)c2nc(N(CCCN(C)C)C(=O)c3ccc4c(c3)CCCC4)sc2c1,EC50,[10],727 nM (active)
same,EC50,[11],4.48 µM (active)
same,AC50,[7],13.4 µM (active)
C/C(=N\Nc1ccc(Cl)c(C(=O)O)c1)c1cccc([N+](=O)[O-])c1,IC50,Prothrombin,> 50 µM (not active)
Cn1c(CN2CCCCC2)nc2cc(NS(=O)(=O)c3ccc(Cl)cc3)ccc21,IC50,Prothrombin,1.06 µM (active)
same,EC50,[12],> 53 µM (inactive)
Cc1ccc(C(=O)n2cnnc2N)cc1,IC50,Prothrombin,4.05 µM (active)
same,EC50,[13],> 260 µM (inactive)
CCOC(=O)C1=C(C)N=c2s/c(=C\c3ccc(O)c([N+](=O)[O-])c3)c(=O)n2C1c1ccccc1OC (centres undefined),EC50,[14],7.08 µM (active)
same,EC50,Streptokinase A,20.4 µM (active)
same,EC50,Streptococcus,31.3 µM (active)
same,AC50,[15],> 20 µM (inactive)
CCOC(=O)Cc1ccc(NS(=O)(=O)c2ccc(SC)cc2)cc1,IC50,Estrogen receptor,> 50 µM (not active)
CN(C)CCCNC(=O)C(=O)Nc1cc2c3c(c1)CC(=O)N3CCC2,AC50,[7],15.4 µM (active)
O=C(COC(=O)c1ncc(Cl)c(Cl)c1Cl)NCc1cccs1,AC50,[16],1.12 µM (active)
Cn1c(=O)c2cc(NC(=O)c3ccccc3Cl)c(=O)oc2n(C)c1=O,IC50,Prothrombin,0.321 µM (active)
